Experimental data: ChEMBL document CHEMBL5465560, “Selectivity Literature for EUbOPEN Chemogenomic Library” (2024)

Columns and labels:
[1] = biological target: LIM domain kinase 2 (Homo sapiens) (UniProt P53671); experiment: Selectivity interaction (KinomeScan (DiscoverX)) EUB0001049a LIMK2; settings: at 1 µM
[2] = biological target: T1, Serine/threonine-protein kinase Sgk3 (Homo sapiens) (UniProt Q96BR1); experiment: Selectivity interaction (KinomeScan (DiscoverX)) EUB0000229b SGK3; settings: at 10 µM
T1 sequence (whole entry): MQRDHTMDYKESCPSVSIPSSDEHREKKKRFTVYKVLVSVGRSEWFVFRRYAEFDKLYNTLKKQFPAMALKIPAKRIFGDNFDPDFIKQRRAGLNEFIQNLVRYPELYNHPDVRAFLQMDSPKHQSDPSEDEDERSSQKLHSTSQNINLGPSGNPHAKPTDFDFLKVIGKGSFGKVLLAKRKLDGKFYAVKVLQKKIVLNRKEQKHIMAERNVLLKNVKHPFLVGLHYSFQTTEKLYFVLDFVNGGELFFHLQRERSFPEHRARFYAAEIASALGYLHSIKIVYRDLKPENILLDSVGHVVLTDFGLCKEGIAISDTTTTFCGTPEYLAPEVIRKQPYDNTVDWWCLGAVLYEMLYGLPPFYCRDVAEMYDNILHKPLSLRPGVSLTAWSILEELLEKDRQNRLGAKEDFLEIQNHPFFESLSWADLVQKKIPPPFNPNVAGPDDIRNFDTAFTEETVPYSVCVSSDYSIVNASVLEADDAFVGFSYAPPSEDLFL

[3] = biological target: T2, Tyrosine-protein kinase receptor TYRO3 (Homo sapiens) (UniProt Q06418); experiment: Selectivity interaction (KinomeScan (DiscoverX)) EUB0000229b TYRO3; settings: at 10 µM
T2 sequence (whole entry): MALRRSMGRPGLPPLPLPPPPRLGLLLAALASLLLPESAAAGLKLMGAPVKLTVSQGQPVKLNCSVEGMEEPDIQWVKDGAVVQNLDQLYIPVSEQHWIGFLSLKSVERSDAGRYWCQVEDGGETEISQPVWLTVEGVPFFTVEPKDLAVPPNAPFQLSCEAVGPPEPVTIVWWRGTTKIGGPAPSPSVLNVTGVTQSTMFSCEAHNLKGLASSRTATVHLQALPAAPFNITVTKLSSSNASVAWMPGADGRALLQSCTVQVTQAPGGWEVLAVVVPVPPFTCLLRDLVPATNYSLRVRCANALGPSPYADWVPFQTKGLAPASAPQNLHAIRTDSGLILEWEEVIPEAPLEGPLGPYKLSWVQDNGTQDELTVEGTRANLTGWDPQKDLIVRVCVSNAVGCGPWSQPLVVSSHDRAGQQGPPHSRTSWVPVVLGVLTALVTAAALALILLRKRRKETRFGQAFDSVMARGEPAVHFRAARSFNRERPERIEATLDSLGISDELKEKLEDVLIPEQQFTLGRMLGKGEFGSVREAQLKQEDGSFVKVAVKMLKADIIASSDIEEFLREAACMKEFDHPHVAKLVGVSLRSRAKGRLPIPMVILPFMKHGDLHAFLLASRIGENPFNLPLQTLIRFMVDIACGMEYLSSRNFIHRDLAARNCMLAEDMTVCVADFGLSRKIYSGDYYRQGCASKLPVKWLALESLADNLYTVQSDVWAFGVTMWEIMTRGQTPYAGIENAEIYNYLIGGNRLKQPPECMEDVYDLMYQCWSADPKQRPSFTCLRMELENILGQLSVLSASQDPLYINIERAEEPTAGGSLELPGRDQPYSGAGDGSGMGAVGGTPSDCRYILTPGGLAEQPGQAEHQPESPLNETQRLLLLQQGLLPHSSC

[4] = biological target: Muscarinic acetylcholine receptor M3 (Homo sapiens, UniProt P20309); experiment: Selectivity interaction (GPCR panel (PDSP screen)) EUB0001079a CHRM3; settings: at 10 µM
[5] = biological target: T1, Serine/threonine-protein kinase Sgk3 (Homo sapiens); experiment: Selectivity interaction (ActivX KiNativ screen (kinase selectivity in THP-1 cell lysates)) EUB0000639a SGK3; format: subcellular; settings: lysate, at 1 µM
[6] = biological target: Cyclin-dependent kinase 14 (Homo sapiens) (UniProt O94921); experiment: Selectivity interaction (ActivX KiNativ screen (kinase selectivity in THP-1 cell lysates)) EUB0000639a CDK14; format: subcellular; settings: lysate
[7] = biological target: Serine/threonine-protein kinase 16 (Homo sapiens, UniProt O75716); experiment: Selectivity interaction (Ambit KINOMEscan and KiNATiv profiling in Jurkat cells) EUB0000090b STK16; format: cell-based; settings: at 1 µM
[8] = biological target: T3, Inhibitor of nuclear factor kappa-B kinase subunit alpha (Homo sapiens) (UniProt O15111); experiment: Selectivity interaction (ActivX KiNativ screen (ex vivo kinase selectivity in human PBMCs)) EUB0001619a CHUK; format: cell-based; settings: PBMC, at 1 µM
T3 sequence (whole entry): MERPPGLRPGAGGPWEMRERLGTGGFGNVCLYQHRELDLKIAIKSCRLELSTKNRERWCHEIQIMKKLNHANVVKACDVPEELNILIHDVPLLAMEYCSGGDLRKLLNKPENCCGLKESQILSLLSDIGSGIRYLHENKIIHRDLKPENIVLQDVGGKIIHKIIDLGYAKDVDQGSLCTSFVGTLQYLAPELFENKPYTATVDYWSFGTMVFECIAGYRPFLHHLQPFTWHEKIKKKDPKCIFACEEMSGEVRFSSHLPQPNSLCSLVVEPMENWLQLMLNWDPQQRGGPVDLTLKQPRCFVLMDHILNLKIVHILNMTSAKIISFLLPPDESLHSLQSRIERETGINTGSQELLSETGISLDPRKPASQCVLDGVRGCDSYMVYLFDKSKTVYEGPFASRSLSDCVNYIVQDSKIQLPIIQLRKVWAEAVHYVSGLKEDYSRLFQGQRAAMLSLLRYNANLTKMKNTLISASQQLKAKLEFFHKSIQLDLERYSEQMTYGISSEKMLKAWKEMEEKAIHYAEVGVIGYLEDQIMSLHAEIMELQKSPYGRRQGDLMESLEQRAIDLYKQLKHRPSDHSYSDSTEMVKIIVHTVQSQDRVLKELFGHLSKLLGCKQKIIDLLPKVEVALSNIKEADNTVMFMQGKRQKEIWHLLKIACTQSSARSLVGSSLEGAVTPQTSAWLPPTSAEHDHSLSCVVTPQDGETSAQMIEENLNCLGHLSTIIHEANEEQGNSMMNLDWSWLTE

Cyclin-dependent kinase 14 (Homo sapiens), sequence (O94921 whole entry): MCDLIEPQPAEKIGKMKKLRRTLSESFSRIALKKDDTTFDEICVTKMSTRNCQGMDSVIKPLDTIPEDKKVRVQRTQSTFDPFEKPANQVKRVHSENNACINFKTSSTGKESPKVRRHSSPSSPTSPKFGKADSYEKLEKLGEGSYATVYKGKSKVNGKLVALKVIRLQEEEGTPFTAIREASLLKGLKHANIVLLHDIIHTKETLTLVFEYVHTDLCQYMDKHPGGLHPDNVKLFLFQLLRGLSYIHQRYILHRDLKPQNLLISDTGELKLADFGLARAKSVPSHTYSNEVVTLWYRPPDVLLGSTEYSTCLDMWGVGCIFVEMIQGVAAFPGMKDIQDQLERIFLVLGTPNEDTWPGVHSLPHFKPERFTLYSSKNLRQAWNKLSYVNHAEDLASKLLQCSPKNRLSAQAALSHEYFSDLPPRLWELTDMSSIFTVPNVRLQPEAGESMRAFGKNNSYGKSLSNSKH
Serine/threonine-protein kinase 16, sequence (O75716 whole entry): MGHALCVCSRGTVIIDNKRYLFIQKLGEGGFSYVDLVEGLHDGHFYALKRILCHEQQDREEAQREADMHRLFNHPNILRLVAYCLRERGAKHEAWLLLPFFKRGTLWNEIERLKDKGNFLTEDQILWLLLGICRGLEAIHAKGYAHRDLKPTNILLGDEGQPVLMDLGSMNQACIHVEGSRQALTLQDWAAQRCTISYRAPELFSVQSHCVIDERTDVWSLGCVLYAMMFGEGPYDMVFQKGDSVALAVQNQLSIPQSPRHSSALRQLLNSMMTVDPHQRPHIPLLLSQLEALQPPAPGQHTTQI
LIM domain kinase 2 (Homo sapiens), sequence (P53671 whole entry, looked up, the tested form may be a part): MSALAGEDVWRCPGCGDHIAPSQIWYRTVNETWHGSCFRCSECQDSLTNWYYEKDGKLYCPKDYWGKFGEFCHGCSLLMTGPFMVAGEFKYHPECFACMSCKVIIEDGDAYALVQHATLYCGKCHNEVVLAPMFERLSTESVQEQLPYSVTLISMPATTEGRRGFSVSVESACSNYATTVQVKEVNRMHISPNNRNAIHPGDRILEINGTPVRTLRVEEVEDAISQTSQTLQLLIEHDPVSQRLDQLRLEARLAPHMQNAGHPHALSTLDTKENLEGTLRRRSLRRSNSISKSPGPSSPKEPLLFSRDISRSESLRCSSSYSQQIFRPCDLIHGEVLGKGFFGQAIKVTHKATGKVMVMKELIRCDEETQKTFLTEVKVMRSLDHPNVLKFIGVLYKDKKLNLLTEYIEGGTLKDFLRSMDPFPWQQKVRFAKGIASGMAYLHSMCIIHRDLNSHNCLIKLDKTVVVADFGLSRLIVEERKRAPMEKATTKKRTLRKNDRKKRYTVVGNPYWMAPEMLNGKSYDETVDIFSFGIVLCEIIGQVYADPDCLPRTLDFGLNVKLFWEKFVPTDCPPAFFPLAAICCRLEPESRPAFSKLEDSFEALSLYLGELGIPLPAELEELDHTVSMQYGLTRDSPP
Muscarinic acetylcholine receptor M3, sequence (P20309 whole entry, looked up): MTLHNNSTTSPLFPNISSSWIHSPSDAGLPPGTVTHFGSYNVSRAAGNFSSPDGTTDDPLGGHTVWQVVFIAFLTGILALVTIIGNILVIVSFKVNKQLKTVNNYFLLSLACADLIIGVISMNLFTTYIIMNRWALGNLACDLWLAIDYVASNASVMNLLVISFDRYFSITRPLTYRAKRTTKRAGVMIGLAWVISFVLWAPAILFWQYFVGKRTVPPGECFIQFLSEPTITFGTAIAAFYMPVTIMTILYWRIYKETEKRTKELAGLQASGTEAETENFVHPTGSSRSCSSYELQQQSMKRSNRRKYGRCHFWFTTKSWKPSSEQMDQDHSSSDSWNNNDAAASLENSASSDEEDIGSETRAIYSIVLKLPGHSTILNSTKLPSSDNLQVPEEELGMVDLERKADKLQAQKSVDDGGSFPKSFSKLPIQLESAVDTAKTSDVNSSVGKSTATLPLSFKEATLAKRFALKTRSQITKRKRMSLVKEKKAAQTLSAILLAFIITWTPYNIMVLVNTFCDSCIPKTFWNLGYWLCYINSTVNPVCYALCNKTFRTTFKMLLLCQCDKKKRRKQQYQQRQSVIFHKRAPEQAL

**Q.** COc1cc(Nc2nc(C)cc(-c3cnn4nc(OC)ccc34)n2)cc(C(F)(F)F)c1 was tested. Which % of control [1] did it give?
**A.** 92%

**Q.** For COc1cc(N(C)c2ccnc3ccc(C(F)(F)F)cc23)cc(OC)c1OC, which % binding [2] is on record?
**A.** 79%

**Q.** What about the % binding [3] of the same molecule?
**A.** 80%

**Q.** Which % of inhibition [4] does the source give for Nc1cnc(N2CCc3cc(S(=O)(=O)Nc4c(F)cc(Cl)cc4F)cc(N4CCCC4=O)c32)nc1 [TP-020n] here?
**A.** -18%

**Q.** What does the source list for CC[C@@H]1[C@H](F)C(=O)N[C@@H]1COc1nccc2cc(C(N)=O)c(OC)cc12 [ZIMLOVISERTIB]?
**A.** % of inhibition [5]: -1%; % of inhibition ([6]; at 0.01 µM): -6.2%; % of inhibition ([6]; at 0.04 µM): 2.9%; % of inhibition ([6]; at 0.2 µM): -6.5%; % of inhibition ([6]; at 1 µM): 12.2%; % of inhibition ([6]; at 5 µM): 16.4%

**Q.** With CN(C)C/C=C/C(=O)Nc1ccc(C(=O)N2CCCC(Nc3ncc(Cl)c(-c4c[nH]c5ccccc45)n3)C2)cc1 (configuration not stated) as the molecule, how does the % of control [7] read?
**A.** 6.2%

**Q.** For N#Cc1cccc(-c2c[nH]c3ncnc(N4CCOCC4)c23)c1, which % of inhibition [8] is on record?
**A.** -7%
